This note sets out measurements from patent publication US10851096B2, “Aryl and heteroaryl amides for use as anti-proliferative, anti-thrombotic, and anti-viral agents” (Rutgers, The State University of New Jersey, priority 2016, dated 2020).

The structures appear in SMILES notation.

Data set [1] is described as follows: Pharmacokinetics in mice (half-life, bioavailability). The settings on record: for half-life: mouse, in vivo, read-out: half-life (t1/2) (converted). Type of data set: in vivo, mouse.
Another data set concerns the target T1, native Axl (Homo sapiens, UniProt P30530).
T1 construct: Gas6-inducible phosphorylation of native Axl (pAxl); endogenous in cells; host or cells: MDA-MB-231
T1 sequence (P30530 26-894): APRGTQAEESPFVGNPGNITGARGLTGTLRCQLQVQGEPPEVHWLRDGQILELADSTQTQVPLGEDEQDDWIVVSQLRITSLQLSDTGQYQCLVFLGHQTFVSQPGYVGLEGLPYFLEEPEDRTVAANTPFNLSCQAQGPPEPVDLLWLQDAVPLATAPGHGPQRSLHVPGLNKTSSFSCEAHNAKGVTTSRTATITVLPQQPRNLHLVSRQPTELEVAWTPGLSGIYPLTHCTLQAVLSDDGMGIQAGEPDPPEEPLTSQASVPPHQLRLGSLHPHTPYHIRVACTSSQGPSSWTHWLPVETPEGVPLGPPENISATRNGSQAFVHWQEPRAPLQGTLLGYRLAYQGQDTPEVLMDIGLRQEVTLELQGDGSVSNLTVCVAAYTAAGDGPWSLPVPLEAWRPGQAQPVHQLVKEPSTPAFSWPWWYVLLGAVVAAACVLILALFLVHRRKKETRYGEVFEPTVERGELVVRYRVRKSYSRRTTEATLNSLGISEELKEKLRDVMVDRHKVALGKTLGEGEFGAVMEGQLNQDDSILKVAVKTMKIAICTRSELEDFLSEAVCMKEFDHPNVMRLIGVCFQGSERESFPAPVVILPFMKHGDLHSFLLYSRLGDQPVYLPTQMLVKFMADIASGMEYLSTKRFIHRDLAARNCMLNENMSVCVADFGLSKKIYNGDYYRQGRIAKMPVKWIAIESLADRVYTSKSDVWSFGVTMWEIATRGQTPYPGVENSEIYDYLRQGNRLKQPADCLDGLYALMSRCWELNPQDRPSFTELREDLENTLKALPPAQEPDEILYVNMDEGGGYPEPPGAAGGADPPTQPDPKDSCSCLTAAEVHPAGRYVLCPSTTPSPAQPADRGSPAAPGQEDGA
The data set can be described thus: Gas6-inducible phosphorylation of native Axl in MDA-MB-231 cells (immunoblot). Type of data set: cell-based. The settings on record: MBA-MD-231 breast cancer cell line, FIG. 5A. Here is the method: (§1) Stable hAxl/IFN-γR1 CHO reporter cell lines (containing human Axl extracellular domains and transmembrane and intracellular domains of human IFN-γR1) were serum starved for 5 hrs±small molecule inhibitors and then stimulated with human Gas6 conditioned media±small molecule inhibitors for 30 minutes. For H1299 human non-small cell lung carcinoma and MDA-MB-231 human breast adenocarcinoma cell lines, the cells were serum starved overnight±small molecule inhibitors and stimulated with human Gas6 conditioned media±small molecule inhibitors for 30 minutes. Whole cell lysates of hAxl/IFN-γR1, H1299 and MDA-MB-231 cells were prepared using HNTG buffer (20 mM HEPES, pH 7.5, 150 mM NaCl, 10% glycerol, 1% Triton X-100, 1 mM PMSF, 1 mM Na3VO4, 10 mM Na2MoO4, 1 mM EDTA, 10 mM NaF and 20 μg/mL aprotinin). The resulting lysates were resolved on SDS-PAGE gel and immunoblotted with respective antibodies.
Immunoblot data were obtained within a linear range of exposure, and intensities were quantified by ImageJ. The levels of hAxl/IFN-γR1 cells lines activation were measured by pSTAT1 whereas the levels of H1299 and MDA-MB-231 cell lines activation were measured by pAxl signal intensities. Blots were normalized to intensities of respective β-actin or GAPDH protein loading controls. […]
A general note: Immunoblotting shows a protein as a band on a membrane.

Data set [2] relates to H1299 lung cancer xenograft. The experiment in a line: Mouse xenograft study, human H1299 lung cancer. Type of data set: in vivo. The note with it: for growth of tumor (tumor volume): 100 mg/kg IP. The method, then: 500,000 H1299 cells in 100 μl of PBS were injected subcutaneously into the right flank of 4-6 week NOD/SCIDg mice. Once tumors were palpable, the mice were randomized into 3 groups, each group had 6 mice: control mice were treated with vehicle (DMSO) intraperitoneally (IP) and the treatment groups with compound 1I (day 1, day 2, day 3 and day 4) or with compound 1Q (day 1, day 2, day 3, day 4, day 7 and day 8) at a dose of 100 mg/kg IP. Similar studies were conducted on compound 1Q dosed at 300 mg/kg in mice. Tumor size and body weights were measured three times a week and the tumor volume calculated.
Finally, based on the promising in vitro and cell culture experiments showing anti-Axl activity of certain compounds, the in vivo efficacies of compound 1I and compound 1Q using a murine SCID/human H1299 lung cancer xenograft model was investigated (FIG. 7A-E). As indicated, SCID mice were subcutaneously injected with 250,000 tumor cells in the hind flanks with human H1299 cells until palpable tumors were present. Subsequently, mice were injected every two days with vehicle, compound 1I or compound 1Q at a concentration of 100 mg/kg for up to 2 weeks. […] Taken together, these studies support the further development of TAM Ig1 inhibitors as anti-cancer therapeutics (FIGS. 7A-E).
Background: A xenograft is tissue or cells of one species grown in another, often human tumour cells in immunodeficient mice.

A further data set concerns the target T2, hAxl/IFN-γR1 (Homo sapiens, UniProt P30530).
T2 construct: containing human Axl extracellular domains and transmembrane and intracellular domains of human IFN-γR1; human IFN-γR1 transmembrane and intracellular domains (fusion partner); expressed in transfected cells
T2 sequence (P30530 26-451 limits assumed): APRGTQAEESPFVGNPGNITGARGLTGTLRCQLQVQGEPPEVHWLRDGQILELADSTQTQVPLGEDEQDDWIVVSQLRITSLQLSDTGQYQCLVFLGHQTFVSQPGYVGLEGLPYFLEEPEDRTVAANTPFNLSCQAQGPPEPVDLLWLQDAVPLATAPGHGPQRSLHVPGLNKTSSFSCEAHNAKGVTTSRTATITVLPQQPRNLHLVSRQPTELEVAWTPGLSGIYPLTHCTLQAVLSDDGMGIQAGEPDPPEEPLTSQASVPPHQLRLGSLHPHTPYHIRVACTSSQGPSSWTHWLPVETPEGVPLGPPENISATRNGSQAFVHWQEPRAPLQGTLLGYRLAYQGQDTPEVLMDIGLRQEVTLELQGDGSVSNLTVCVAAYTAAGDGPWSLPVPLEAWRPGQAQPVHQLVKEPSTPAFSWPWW
The data set can be described thus: hAxl/IFN-γR1 CHO reporter cell line assay, Gas6-induced activation (pSTAT1 immunoblot). Type of data set: cell-based. The note with it: for apparent EC50, anti-Axl activity: Axl reporter system; for IC50: dose-response, FIG. 2A/2B, read-out: IC50, Axl-inhibitory activity on hAxl/IFN-γR1 reporter cell lines. Here is the method:
Stable HEK 293 cells secreting human Gas6 (clone 7.4.1) were allowed to achieve 70% confluence in a 10-cm plate. The complete medium with 10% FBS was then changed into serum free media in the presence of 10 µg/mL vitamin K1 (Phytonadione injectable emulsion from Hospira). After 72 hours, the Gas6 conditioned medium was collected, and validated for the presence of Gas6 and γ-carboxylation (by immunoblot) and activity of Gas6 (via activation of pSTAT1 in hAxl/γR1 cells).
as §1
Immunoblot data were obtained within a linear range of exposure, and intensities were quantified by ImageJ. The levels of hAxl/IFN-γR1 cells lines activation were measured by pSTAT1 whereas the levels of H1299 and MDA-MB-231 cell lines activation were measured by pAxl signal intensities. Blots were normalized to intensities of respective β-actin or GAPDH protein loading controls. The levels of pSTAT1 or pAxl activation induced by Gas6±small molecule inhibitors were plotted as a fold of enhancement or reduction over intensities induced by Gas6 alone.

The subject of data set [3] is normal (non-cancerous) cells. The experiment in a line: Cytotoxicity assays using normal (non-cancerous) cells. Type of data set: cell-based.

Turning to `Cc1noc(C)c1CSc1ccccc1C(=O)N1CCN(c2cccc(C(F)(F)F)c2)CC1` [1I], in data set [1], the bioavailability result is on record as “good bioavailability” and the half-life is about 8 h. For the same compound, the “inhibition of activation (phosphorylation) of Axl” value at native Axl is “potent inhibition”. Moreover, the “growth of tumor (tumor volume)” value in data set [2] was “significantly suppressed growth of tumor”. In addition, on hAxl/IFN-γR1, the remaining activity at 10 µM turned out to be 20%; the “apparent EC50, anti-Axl activity” value is on record as “low micro-molar range”; the IC50 was found to be 1.15 µM. In data set [3], the cellular toxicity entry is listed as “no discernible cellular toxicity”.

In the case of `Cc1cc(CSc2ccccc2C(=O)NCCNc2ccc(C(F)(F)F)cc2[N+](=O)[O-])on1` [1Q], in data set [1], the bioavailability entry is “good bioavailability” and the half-life is about 8 h. Moreover, the “inhibition of activation (phosphorylation) of Axl” value against native Axl is recorded as “potent inhibition”. In addition, the “growth of tumor (tumor volume)” value in data set [2] is recorded as “significantly suppressed growth of tumor”. Further, the “tumor growth (volume)” value in data set [2] (300 mg/kg IP) was “suppress tumor growth”. Besides, at hAxl/IFN-γR1, the remaining activity at 10 µM amounted to 10%; the “apparent EC50, anti-Axl activity” value is recorded as “low micro-molar range”; the IC50 came out at 1.25 µM. For the same compound, in data set [3], the cellular toxicity entry is on record as “no discernible cellular toxicity”.
